Consider six molecules from paper PMC6017932, “Synthesis of Selenium-Quinone Hybrid Compounds with Potential Antitumor Activity via Rh-Catalyzed C-H Bond Activation and Click Reactions” (Molecules : A Journal of Synthetic Chemistry and Natural …, 2017).

Like-named read-outs stand apart in the source and are kept apart here.

Series [1] has as its system NCIH-460 (human lung cells). Put plainly: MTT cytotoxicity, NCIH-460 cells. It is filed as cell-based. The settings on record: three independent experiments, read-out: Cytotoxic activity IC50 (95% CI) NCIH-460. The method, then:
(§1) Compounds were evaluated for antitumor activity in cell culture in vitro using several human cancer cell lines obtained from the National Cancer Institute, NCI (Bethesda, MD, USA). […] The L929 cells were cultivated under standard conditions in DMEM with Earle’s salts. […] At the end of the incubation time (72 h), the plates were centrifuged and the medium was replaced by fresh medium (200 μL) containing 0.5 mg/mL MTT. After 3 h, the MTT formazan product was dissolved in DMSO (150 μL) and the absorbance was measured using a multiplate reader (Spectra Count, Packard, ON, Canada). The impact of compounds on cell proliferation was quantified as the percentage of control absorbance of the reduced dye at 550 nm. All cell culture based studies were performed in triplicate. All cells were mycoplasma-free.

For series [2], the system named is HCT-116 (human colon carcinoma cells). The series can be described thus: MTT cytotoxicity, HCT-116 cells. In kind it is cell-based. The settings on record: three independent experiments, read-out: Cytotoxic activity IC50 (95% CI) HCT-116. The method, then:
as §1

The test system of series [3] is PC3 (human prostate cancer cells). The series can be described thus: MTT cytotoxicity, PC3 cells. In kind it is cell-based. The settings on record: three independent experiments, read-out: Cytotoxic activity IC50 (95% CI) PC3. The method, then: as §1
Series [4] relates to SF295 (human glioblastoma cells). Put plainly: MTT cytotoxicity, SF295 cells. In kind it is cell-based. The settings on record: three independent experiments, read-out: Cytotoxic activity IC50 (95% CI) SF295. On the procedure: as §1
In series [5] the test system is L929 (murine fibroblasts normal cells). The series can be described thus: MTT cytotoxicity, L929 normal cells. It is filed as cell-based, mouse. The settings on record: normal cell line, 72 h exposure, three independent experiments, read-out: Cytotoxic activity IC50 (95% CI) L929. The method, then:
as §1

In series [6] the test system is HL-60 (human promyelocytic leukemia cells). The series can be described thus: MTT cytotoxicity, HL-60 cells. In kind it is cell-based. The settings on record: three independent experiments, read-out: Cytotoxic activity IC50 (95% CI) HL-60. On the procedure: as §1
Series [7] is described as follows: MTT cytotoxicity, L929 normal cells. The settings on record: mouse, normal cell line, 72 h exposure, three independent experiments, read-out: Cytotoxic activity IC50 (95% CI) L929. In kind it is cell-based, mouse. The method, then:
as §1

The mark [8] stands for this setting: Homo sapiens, NCI-H460, 72 h exposure.
Where [9] appears, read: Homo sapiens, HCT-116, 72 h exposure.
Where [10] appears, read: Homo sapiens, PC-3, 72 h exposure.
[11] abbreviates: Homo sapiens, SF-295, 72 h exposure.
[12] abbreviates: Homo sapiens, HL-60, 72 h exposure.

As to “3-Bromo-2,2-dimethyl-4-(4-((p-tolylselanyl)methyl)-1H-1,2,3-triazol-1-yl)-3,4-dihydro-2H-benzo[h]-chromene-5,6-dione [Compound 21]”, the IC50 in series [1] (72 h exposure) is 1490 nM; in series [2] (72 h exposure), over 8000 nM; in series [3] (72 h exposure) it was 1770 nM; in series [4] (72 h exposure) it was 1630 nM; in series [5], 1280 nM; in series [6] (72 h exposure) it was 1000 nM.

With “4-(4-((Benzylselanyl)methyl)-1H-1,2,3-triazol-1-yl)-3-bromo-2,2-dimethyl-3,4-dihydro-2H-benzo[h]-chromene-5,6-dione [Compound 20]”, the IC50 was 3260 nM in series [1] (72 h exposure); 2030 nM in series [2] (72 h exposure); 3120 nM in series [4] (72 h exposure); 610 nM in series [5]; 1000 nM in series [6] (72 h exposure).

`COc1ccc([Se]Cc2cn(C3C4=C(OC(C)(C)C3Br)c3ccccc3C(=O)C4=O)nn2)cc1` (stereo not drawn) [Compound 19, 3-Bromo-4-(4-(((4-methoxyphenyl)selanyl)methyl)-1H-1,2,3-triazol-1-yl)-2,2-dimethyl-3,4-dihydro-2H-benzo[h]chromene-5,6-dione] gave a melting point of 113.5 to 114.6 °C. Moreover, in series [1] (setting [8]), the half-inhibitory concentration (IC50) was determined as 2330 nM. Moreover, the IC50 in series [2] (setting [9]) was over 8000 nM. In addition, the IC50 in series [3] (setting [10]) was found to be 1550 nM. In series [4] (setting [11]), the IC50 was 1750 nM. In addition, in series [7], the IC50 at 72 h came to 680 nM. Further, the IC50 in series [6] (setting [12]) is 1280 nM.

`CC1(C)OC2=C(C(=O)C(=O)c3ccccc32)C(n2cc(C[Se]c3cccs3)nn2)C1Br` (stereo not drawn) [Compound 22, 3-Bromo-2,2-dimethyl-4-(4-((thiophen-2-ylselanyl)methyl)-1H-1,2,3-triazol-1-yl)-3,4-dihydro-2H-benzo[h]chromene-5,6-dione] showed a melting point of 104.3 to 108.6 °C. Also, the concentration for half-maximal inhibition (IC50) in series [1] (setting [8]) stood at 2750 nM. In addition, in series [2] (setting [9]), the IC50 is over 8000 nM. Moreover, the 50% inhibitory concentration (IC50) in series [3] (setting [10]) is 2470 nM. Also, the IC50 in series [4] (setting [11]) stood at 2130 nM. Moreover, the IC50 at 72 h in series [7] worked out at 3160 nM. Further, in series [6] (setting [12]), the half-inhibitory concentration (IC50) is 530 nM.

Turning to `CCCC[Se]Cc1cn(C2C3=C(OC(C)(C)C2Br)c2ccccc2C(=O)C3=O)nn1` (stereo not drawn) [Compound 23, 3-Bromo-4-(4-((butylselanyl)methyl)-1H-1,2,3-triazol-1-yl)-2,2-dimethyl-3,4-dihydro-2H-benzo[h]chromene-5,6-dione], the melting point was 123.1 to 124.4 °C. Moreover, the concentration for half-maximal inhibition (IC50) in series [1] (setting [8]) worked out at 2640 nM. Moreover, the IC50 in series [2] (setting [9]) was determined as 970 nM. Also, the IC50 in series [3] (setting [10]) turned out to be 1640 nM. Besides, the IC50 in series [4] (setting [11]) is 3430 nM. In addition, the IC50 at 72 h in series [7] stood at 2120 nM. For the same molecule, the IC50 in series [6] (setting [12]) is 710 nM.

Molecule `CC1(C)OC2=C(C(=O)C(=O)c3ccccc32)C(n2cc(CSc3ccccc3)nn2)C1Br` (stereo not drawn) [Compound 24, 3-Bromo-2,2-dimethyl-4-(4-((phenylthio)methyl)-1H-1,2,3-triazol-1-yl)-3,4-dihydro-2H-benzo[h]chromene-5,6-dione] yielded a melting point of 119.5 to 121.4 °C. The IC50 in series [1] (setting [8]) stood at 4910 nM. For the same molecule, the IC50 in series [2] (setting [9]) stood at 4380 nM. In addition, the IC50 in series [3] (setting [10]) was 2100 nM. In addition, the 50% inhibitory concentration (IC50) in series [4] (setting [11]) worked out at 2340 nM. Further, in series [7], the IC50 at 72 h stood at 840 nM. For the same molecule, the IC50 in series [6] (setting [12]) came out at 1940 nM.
